SMILES strings stand for the structures.

Consider 14 molecules from patent US12479830B2, “Homopiperazinyl and homopiperidinyl quinazolin-4(3H)-one derivatives having multimodal activity against pain” (ESTEVE PHARMACEUTICALS, S.A., priority 2019, dated 2025).

In assay [1] the target is Human α2δ-1 subunit of Cav2.2 calcium channel (Homo sapiens, UniProt P54289). Put plainly: Human α2δ-1 subunit of Cav2.2 calcium channel assay ([3H]-gabapentin binding). Particulars: binding to the α2δ-1 subunit of voltage-gated calcium channels, expressed as Ki class; + also covers inhibition between 1% and 50%. The procedure, abridged: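 Human α2δ-1 enriched membranes (2.5 μg) incubated 60 min at 27° C. with 15 nM [3H]-gabapentin in 10 mM Hepes-KOH pH 7.4; non-specific binding with 10 μM pregabalin. Filtration binding; % inhibition at 1 or 10 μM, or Ki from five concentrations.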

Another assay addresses T1, Human σ1 receptor (Homo sapiens, UniProt Q99720).
T1 construct: expressed in transfected cells; host or cells: HEK-293
Nature of the assay: Human σ1 receptor radioligand assay ([3H](+)-pentazocine binding). Particulars: binding to the σ1 receptor, expressed as Ki class; + also covers inhibition between 1% and 50%. In outline: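 Membranes (7 μg) were incubated with 5 nM [3H](+)-pentazocine in 50 mM Tris-HCl pH 8 for 120 min at 37° C. Non-specific binding was defined with 10 μM haloperidol. Values are % inhibition at 1 or 10 μM or Ki from five concentrations, read by filtration and scintillation counting.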

T1 sequence (Q99720 whole entry): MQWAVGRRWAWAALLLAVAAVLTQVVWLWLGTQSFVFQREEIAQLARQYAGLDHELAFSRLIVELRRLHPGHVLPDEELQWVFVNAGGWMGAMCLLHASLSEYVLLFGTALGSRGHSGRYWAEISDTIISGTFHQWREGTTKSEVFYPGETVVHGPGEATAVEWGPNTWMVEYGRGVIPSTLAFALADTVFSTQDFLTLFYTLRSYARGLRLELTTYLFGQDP
Sequence of Human α2δ-1 subunit of Cav2.2 calcium channel (P54289 25-1103): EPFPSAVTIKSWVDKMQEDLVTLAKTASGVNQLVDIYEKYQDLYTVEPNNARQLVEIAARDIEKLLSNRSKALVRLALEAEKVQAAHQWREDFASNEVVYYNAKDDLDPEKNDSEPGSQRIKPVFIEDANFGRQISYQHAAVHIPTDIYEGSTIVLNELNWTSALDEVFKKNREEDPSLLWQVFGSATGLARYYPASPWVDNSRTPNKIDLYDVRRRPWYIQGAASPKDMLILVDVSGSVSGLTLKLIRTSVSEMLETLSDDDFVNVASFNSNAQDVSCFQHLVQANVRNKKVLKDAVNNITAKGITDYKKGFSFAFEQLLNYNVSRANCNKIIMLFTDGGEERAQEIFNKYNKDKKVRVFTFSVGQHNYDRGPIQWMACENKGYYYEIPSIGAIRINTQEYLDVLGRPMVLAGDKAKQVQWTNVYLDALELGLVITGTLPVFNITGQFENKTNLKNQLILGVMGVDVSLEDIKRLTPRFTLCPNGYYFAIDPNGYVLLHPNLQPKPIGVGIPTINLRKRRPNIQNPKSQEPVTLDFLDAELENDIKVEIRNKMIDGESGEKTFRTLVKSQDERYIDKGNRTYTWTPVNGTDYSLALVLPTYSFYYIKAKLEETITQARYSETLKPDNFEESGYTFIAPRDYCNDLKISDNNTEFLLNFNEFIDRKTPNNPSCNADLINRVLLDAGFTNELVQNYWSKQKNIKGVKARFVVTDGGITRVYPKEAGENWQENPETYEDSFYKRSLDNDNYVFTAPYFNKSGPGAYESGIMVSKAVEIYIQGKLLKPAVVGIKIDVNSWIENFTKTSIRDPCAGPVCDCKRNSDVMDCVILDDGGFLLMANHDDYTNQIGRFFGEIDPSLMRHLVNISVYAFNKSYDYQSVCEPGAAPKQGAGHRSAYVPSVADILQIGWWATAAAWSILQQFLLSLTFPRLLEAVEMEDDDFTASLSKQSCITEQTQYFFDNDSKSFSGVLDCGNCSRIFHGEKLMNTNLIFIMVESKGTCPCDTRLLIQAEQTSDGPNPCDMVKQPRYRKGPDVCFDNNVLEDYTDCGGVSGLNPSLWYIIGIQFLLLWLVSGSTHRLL

For orientation: Ki means a measure of affinity in units of concentration, obtained from inhibition or displacement. Turning to `CCC[C@H](c1nc2cc(OC)c(F)cc2c(=O)n1CC)N1CCCN(C)CC1` [Example 230, (R)-3-ethyl-6-fluoro-7-methoxy-2-(1-(4-methyl-1,4-diazepan-1-yl)butyl)quinazolin-4(3H)-one], the inhibition constant Ki was less than 500 nM in assay [1] and 500 to 1000 nM at Human σ1 receptor.

`CCCC(c1nc2cc(F)c(Br)cc2c(=O)n1CCC)N1CCCN(CC)CC1` (stereo not shown) [Example 61, 6-bromo-2-(1-(4-ethyl-1,4-diazepan-1-yl)butyl)-7-fluoro-3-propylquinazolin-4(3H)-one]: the inhibition constant (Ki) (in assay [1]; on Human σ1 receptor) was less than 500 nM throughout.

Consider `CCC[C@@H](c1nc2cc(F)c(Br)cc2c(=O)n1CC)N1CCCNCC1` [Example 158, (S)-2-(1-(1,4-diazepan-1-yl)butyl)-6-bromo-3-ethyl-7-fluoroquinazolin-4(3H)-one], for which the inhibition constant (Ki) in assay [1] is greater than 5000 nM; at Human σ1 receptor it was greater than 1000 nM.

As to `CCC[C@@H](c1nc2cc(F)c(Cl)cc2c(=O)n1CC)N1CCN(C)C[C@H](C)C1` [Example 137, 6-chloro-2-((S)-1-((S)-4,6-dimethyl-1,4-diazepan-1-yl)butyl)-3-ethyl-7-fluoroquinazolin-4(3H)-one], the Ki in assay [1] was greater than 5000 nM; at Human σ1 receptor it was 500 to 1000 nM.

For the molecule `CCCC(c1nc2ccc(Br)c(C)c2c(=O)n1CC)N1CCCN(C)CC1` (stereo not shown) [Example 24, 6-bromo-3-ethyl-5-methyl-2-(1-(4-methyl-1,4-diazepan-1-yl)butyl)quinazolin-4(3H)-one], the inhibitory constant (Ki) is 500 to 5000 nM in assay [1] and less than 500 nM on Human σ1 receptor.

For `CCC[C@H](c1nc2ccc(Br)cc2c(=O)n1CC)N1CCCN(CC)CC1` [Example 153, (R)-6-Bromo-3-ethyl-2-(1-(4-ethyl-1,4-diazepan-1-yl)butyl)quinazolin-4(3H)-one], the Ki (in assay [1]; at Human σ1 receptor) was less than 500 nM throughout.

`CCCC(c1nc2ccc(Br)cc2c(=O)n1CC)N1CCCN(CCc2ccccc2)CC1` (stereo not shown) [Example 5, 6-bromo-3-ethyl-2-(1-(4-phenethyl-1,4-diazepan-1-yl)butyl)quinazolin-4(3H)-one]: the inhibition constant (Ki) was 500 to 5000 nM in assay [1] and less than 500 nM on Human σ1 receptor.

As for `CCC[C@@H](c1nc2ccc(Br)cc2c(=O)n1CC)N1CCNC[C@@H](O)C1` [Example 113, 6-Bromo-3-ethyl-2-((S)-1-((R)-6-hydroxy-1,4-diazepan-1-yl)butyl)quinazolin-4(3H)-one], the Ki in assay [1] was greater than 5000 nM; at Human σ1 receptor, greater than 1000 nM.

Turning to `CCCC(c1nc2ncccc2c(=O)n1CC)N1CCCN(C)CC1` (stereo not shown) [Example 180, 3-ethyl-2-(1-(4-methyl-1,4-diazepan-1-yl)butyl)pyrido[2,3-d]pyrimidin-4(3H)-one], the Ki is less than 500 nM in assay [1] and greater than 1000 nM at Human σ1 receptor.

On to `CCCC(c1nc2ncc(Br)cc2c(=O)n1CC)N1CCCN(C)CC1` (stereo not shown) [Example 175, 6-Bromo-3-ethyl-2-(1-(4-methyl-1,4-diazepan-1-yl)butyl)pyrido[2,3-d]pyrimidin-4(3H)-one], for which the Ki is less than 500 nM in assay [1] and greater than 1000 nM at Human σ1 receptor.

As to `CCCC(c1nc2ccc(F)cc2c(=O)n1CC)C1CCCN(CC)CC1` (stereo not shown) [Example 268, 3-ethyl-2-(1-(1-ethylazepan-4-yl)butyl)-6-fluoroquinazolin-4(3H)-one], the inhibition constant (Ki) is 500 to 5000 nM in assay [1] and less than 500 nM at Human σ1 receptor.

As for `CCC[C@H](c1nc2ccc(I)cc2c(=O)n1CC)N1CCCN(C)CC1` [Example 213, (R)-3-ethyl-6-iodo-2-(1-(4-methyl-1,4-diazepan-1-yl)butyl)quinazolin-4(3H)-one], the figures for the Ki (in assay [1]; on Human σ1 receptor) were less than 500 nM and 500 to 1000 nM, respectively.

On to `CCC[C@@H](c1nc2ccc(Br)cc2c(=O)n1CC)N1CCN[C@@H](C)CC1` [Example 95, 6-bromo-3-ethyl-2-((S)-1-((S)-5-methyl-1,4-diazepan-1-yl)butyl)quinazolin-4(3H)-one], for which the results for the Ki (in assay [1]; at Human σ1 receptor) were greater than 5000 nM and greater than 1000 nM, respectively.

Turning to `CCC[C@H](c1nc2ccc(Br)cc2c(=O)n1CC)N1CCCN[C@@H](C)C1` [Example 142, 6-bromo-3-ethyl-2-((R)-1-((S)-3-methyl-1,4-diazepan-1-yl)butyl)quinazolin-4(3H)-one], the Ki is less than 500 nM in assay [1] and greater than 1000 nM at Human σ1 receptor.
